Broadly, the melting point is the temperature, or range, at which the solid turns liquid. Compound `CCOCc1nc2c(N)nc3cc(-c4cccnc4)ccc3c2n1CC(O)CO` (stereo not shown) [Example 162, 3-[4-Amino-2-ethoxymethyl-7-(pyridin-3-yl)-1H-imidazo[4,5-c]quinolin-1-yl]propane-1,2-diol] showed a melting point of 218 to 220 °C. Next, `COCCc1nc2c(N)nc3cc(-c4cccc(CO)c4)ccc3c2n1CC(C)(C)O` [Example 140, 1-[4-Amino-7-(3-hydroxymethylphenyl)-2-(2-methoxyethyl)-1H-imidazo[4,5-c]quinolin-1-yl]-2-methylpropan-2-ol]: 212 to 213 °C; `CCOCc1nc2c(N)nc3ccc(-c4cncc(CO)c4)cc3c2n1CC(C)(C)O` [Example 150, 1-[4-Amino-2-ethoxymethyl-8-(5-hydroxymethylpyridin-3-yl)-1H-imidazo[4,5-c]quinolin-1-yl]-2-methylpropan-2-ol]: 230 to 232 °C. Take `CCOCc1nc2c(N)nc3cc(-c4cccc(CS(N)(=O)=O)c4)ccc3c2n1CC1CCOCC1` [Example 480, {3-[4-Amino-2-ethoxymethyl-1-(tetrahydropyran-4-ylmethyl)-1H-imidazo[4,5-c]quinolin-7-yl]phenyl}methanesulfonamide]: the melting point lay in the range of 254 to 255 °C.

In turn, `CCCCc1nc2c(N)nc3cc(CCc4ccccc4)ccc3c2n1CC(C)C` [Example 8, 2-Butyl-1-isobutyl-7-phenethyl-1H-imidazo[4,5-c]quinolin-4-amine] displayed a melting point of 181 to 182 °C.

As for `CCOCc1nc2c(N)nc3cc(-c4cccnc4)ccc3c2n1CCCCNC(=O)C1CCCC1` (hydrate or solvate) [Example 374, N-{4-[4-Amino-2-ethoxymethyl-7-(pyridin-3-yl)-1H-imidazo[4,5-c]quinolin-1-yl]butyl}cyclopentanecarboxamide], the melting point fell in the range of 196 to 198 °C. `CCCOc1ccc(-c2ccc3c(c2)nc(N)c2nc(COCC)n(CC(C)C)c23)cc1` [Example 107, 2-Ethoxymethyl-1-(2-methylpropyl)-7-(4-propoxyphenyl)-1H-imidazo[4,5-c]quinolin-4-amine] displayed a melting point of 209 to 210 °C.

Turning to `CCCc1nc2c(N)nc3cc(/C=C/c4cccc(S(N)(=O)=O)c4)ccc3c2n1CC(C)C` [Example 440, (E)-3-{2-[4-Amino-1-(2-methylpropyl)-2-propyl-1H-imidazo[4,5-c]quinolin-7-yl]vinyl}benzenesulfonamide], the melting point was over 250 °C. `CCOCc1nc2c(N)nc3cc(-c4cn[nH]c4)ccc3c2n1CC(C)(C)O` [Example 128, 1-[4-Amino-2-ethoxymethyl-7-(1H-pyrazol-4-yl)-1H-imidazo[4,5-c]quinolin-1-yl]-2-methylpropan-2-ol] registered a melting point of over 250 °C. On to `Cc1ccc(-c2ccc3nc(N)c4ncn(CC(C)C)c4c3c2)cc1C` [Example 119, 8-(3,4-Dimethylphenyl)-1-(2-methylpropyl)-1H-imidazo[4,5-c]quinolin-4-amine], for which the melting point lay within 204 to 205 °C. For `CCOCc1nc2c(N)nc3cc(-c4cncc(CO)c4)ccc3c2n1CC1CCCCC1` [Example 439, 1-Cyclohexylmethyl-2-ethoxymethyl-7-(5-hydroxymethylpyridin-3-yl)-1H-imidazo[4,5-c]quinolin-4-amine], the melting point was 240 to 241 °C. The compound `COCc1nc2c(N)nc3cc(-c4ccc(OC)nc4)ccc3c2n1CC(C)(C)O` [Example 398, 1-[4-Amino-2-methoxymethyl-7-(6-methoxypyridin-3-yl)-1H-imidazo[4,5-c]quinolin-1-yl]-2-methylpropan-2-ol] returned a melting point of 190 to 190.5 °C. Consider `CCCCc1nc2c(N)nc3cc(-c4ccccc4)ccc3c2n1CC(C)C` [Example 2, 2-Butyl-1-isobutyl-7-phenyl-1H-imidazo[4,5-c]quinolin-4-amine], for which the melting point is over 250 °C. Then `CCOCc1nc2c(N)nc3cc(-c4ccccc4)ccc3c2n1CCOc1ccccc1` [Example 197, 2-Ethoxymethyl-1-(2-phenoxyethyl)-7-phenyl-1H-imidazo[4,5-c]quinolin-4-amine], with 159 to 160 °C; and `CCc1nc2c(N)nc3cc(-c4cccnc4)ccc3c2n1CC1CCN(C(=O)NC(C)C)CC1` (hydrate or solvate) [Example 408, 4-[4-Amino-2-ethyl-7-(pyridin-3-yl)-1H-imidazo[4,5-c]quinolin-1-ylmethyl]piperidin-1-carboxylic acid isopropylamide], with 255 to 256 °C; and `CCOCc1nc2c(N)nc3cc(-c4cccc(C#N)c4)ccc3c2n1CC(C)C` [Example 111, 3-(4-Amino-2-ethoxymethyl-1-(2-methylpropyl)-1H-imidazo[4,5-c]quinolin-7-yl)benzonitrile], with 210 to 211 °C. Compound `CCOCc1nc2c(N)nc3cc(-c4cccnc4)ccc3c2n1CC1CCOCC1` (hydrate or solvate) [Example 479, 2-Ethoxymethyl-7-(pyridin-3-yl)-1-(tetrahydropyran-4-ylmethyl)-1H-imidazo[4,5-c]quinolin-4-amine] came in with a melting point of 116 to 121 °C. Compound `CCOCc1nc2c(N)nc3cc(-c4ccccc4)ccc3c2n1CCCOC` [Example 163, 2-Ethoxymethyl-1-(3-methoxypropyl)-7-phenyl-1H-imidazo[4,5-c]quinolin-4-amine] returned a melting point of 146 to 147 °C. Then `CCOCc1nc2c(N)nc3cc(-c4cccc(C(=O)O)c4)ccc3c2n1CC(C)(C)O` [Example 135, 3-[4-Amino-2-ethoxymethyl-1-(2-hydroxy-2-methylpropyl)-1H-imidazo[4,5-c]quinolin-7-yl]benzoic acid], with over 250 °C. Next, `CCc1nc2c(N)nc3cc(-c4cccnc4)ccc3c2n1CC1CCN(C(=O)C(C)C)CC1` (hydrate or solvate) [Example 407, 1-{4-[4-Amino-2-ethyl-7-(pyridin-3-yl)-1H-imidazo[4,5-c]quinolin-1-ylmethyl]piperidin-1-yl}-2-methylpropan-1-one]: 189 to 191 °C; `Nc1nc2cc(-c3ccccc3)ccc2c2c1ncn2CCCN1CCCC1=O` [Example 204, 1-[3-(4-Amino-7-phenyl-1H-imidazo[4,5-c]quinolin-1-yl)propyl]pyrrolidin-2-one]: 201 to 204 °C; `CC(=O)c1cccc(-c2ccc3nc(N)c4ncn(CC(C)C)c4c3c2)c1` [Example 120, 1-{3-[4-Amino-1-(2-methylpropyl)-1H-imidazo[4,5-c]quinolin-8-yl]phenyl}ethanone]: 217 to 218 °C. The compound `COCCc1nc2c(N)nc3cc(-c4cncc(CO)c4)ccc3c2n1CC(C)C` [Example 146, {5-[4-Amino-2-(2-methoxyethyl)-1-(2-methylpropyl)-1H-imidazo[4,5-c]quinolin-7-yl]pyridin-3-yl}methanol] yielded a melting point of 202 to 204 °C. Compound `CCOCc1nc2c(N)nc3cc(-c4cccnc4)ccc3c2n1CCN1CCN(S(C)(=O)=O)CC1` (hydrate or solvate) [Example 415, 2-Ethoxymethyl-1-{2-[4-(methanesulfonyl)piperazin-1-yl]ethyl}-7-(pyridin-3-yl)-1H-imidazo[4,5-c]quinolin-4-amine] had a melting point of 205 to 207 °C. For the compound `CCCc1nc2c(N)nc3cc(-c4cccnc4)ccc3c2n1CCCCNC(=O)NC(C)C` (hydrate or solvate) [Example 385], the melting point was in the range of 173 to 175 °C.

The values above are taken from patent publication US7598382B2, “Aryl substituted imidazoquinolines” (Coley Pharmaceutical Group, Inc., priority 2002, dated 2009).
